Like-named read-outs stand apart in the source and are kept apart here.
Tests used:
[1] = tested on: α1-antitrypsin Z variant (ATZ); test: Steady state levels of ATZ in HTO/Z cell line (immunoblot); activity of G2 analogs; format: cell-based, human; conditions: for Activity: G2 and G2 analogs, positive activity if shown to have any activity, not quantified
Protocol: For experiments with G2 analogs, Tet-off inducible cell lines were cultured in absence of doxycycline for at least 12 days to ensure expression of […] or its variants. The cells were then sub-cultured into separate monolayers in fresh complete growth medium and incubated for 48 hours in the absence or presence of G2 analog. […] All compounds available commercially were purchased except for G2-22, which was synthesized with routine chemistry.
Cells were lysed in NP40 buffer and then separated into insoluble and soluble fractions according to a previously established technique. Samples were subjected to immunoblot analysis for AT and GAPDH. For immmunoblot analysis to detect AT or GAPDH, cells were lysed in 50 mM Tris-HCl, 150 mM NaCl, 1% NP-40, pH 8.0. Protein concentrations were determined by BCA protein assay (Pierce Biotechnology, Rockford, IL). […] The membranes were blocked in 5% milk and then incubated overnight at 4° C. with primary antibody for AT (1:1000, Diasorin), LC3 (1:2000, Sigma), p62 (1:1000, Cell signaling, Danvers, MA), ATG5 (1:1000, Cell signaling), mTOR substrate sampler (1:1000 for all antibodies, Cell signaling). Donkey anti-goat Ig (Jackson Labs, Bar Harbor, ME), goat anti-rabbit lg (1:50,000), or goat anti-mouse Ig (1:50,000) were used as secondary antibodies in TBST at RT, 1 hour. Blots were visualized with ECL or West Femto from Pierce. Membranes were re-probed with GAPDH (1:5000, Sigma) as loading control. Insoluble samples were stained with Gel Code Blue as loading control.

[2] = tested on: PiZ mouse model of ATD; test: PiZ mouse model of ATD, oral gavage; format: in vivo
Protocol: The PiZ mouse model has been described previously (Hidvegi 2010 Science 329 (5988): 229-232). For experiments involving drug administration in mice in vivo, doses of 5-50 mg/kg/day for the G2 analog were given for 3 weeks, and then liver histological and biochemical characteristics were assessed exactly as previously described (Hidvegi 2005J Biol Chem 280 (47): 39002-39015). Each experimental group contained 4-6 four- to six-month old male mice randomly chosen from littermates. G2 analogs were delivered by oral gavage. Control mice were littermates given DMSO by gavage. The outcome was determined by evaluating 1) the hepatic ATZ load by immunoblotting with anti-AT, immunostaining with PAS/D; 2) hepatic fibrosis using Sirius Red staining; 3) autophagy by immunoblotting with anti-LC3 and anti-p62, and imaging for GFP+autophagosomes; 4) monitoring blood glucose levels by glucometer and blood insulin levels by ELISA Wide Range Assay (CrystalChem). For immunostaining, liver samples were fixed in 10% Formalin, followed by staining with PAS after diastase and Sirius Red using standard techniques. Quantitative evaluation of immunostaining and histochemical staining was carried out by a member of the team that was blinded to group allocation. Blood glucose and insulin levels were quantified as previously described (Wang 2019 PLOS One 14: e0209748).
For immunoblot analysis of proteins in liver, the liver was snap frozen in liquid nitrogen and stored at −80° C. Liver was homogenized in 50 mM Tris-HCl pH 8.0, 150 mM NaCl, 2 mM KCl, 2 mM MgCl2, 0.5% Triton X-100, 0.5% deoxycholic acid containing 0.1 mM […] and Complete protease inhibitor cocktail from Roche. Total protein concentration was measured by BCA assay (Pierce) and followed by western blotting as described previously.

[3] = tested on: misfolded ATZ; conditions: mammalian cell models of ATD; previously shown; cited from earlier work
[4] = tested on: HTT inclusion bodies (IBs) in HD-MSNs; test: HTT inclusion bodies / mHTT aggregation in HD-MSNs; format: cell-based, human; conditions: HD-MSNs from three patients, 0.5 μM vs DMSO, PID30, FIG. 18K
Protocol: Adult dermal fibroblasts from symptomatic HD patients (Coriell NINDS and NIGMS Repositories: ND33947, ND30013, GM02173, GM04230, GM04198, GM02147), presymptomatic HD patients (GM04717, GM04861, GM04855, GM04831, GM04857, GM04829), and healthy controls (GM02171) were acquired from the Coriell Institute for Medical Research. The lentiviral cocktail of rtTA, pTight-9-124-BclxL, CTIP2, MYT1L, DLX1, and DLX2 was added to human fibroblasts for 16 h, then cells were washed and fed with fibroblasts media containing 1 μg/mL doxycycline (DOX). Briefly, transduced fibroblasts were maintained in fibroblasts media for two days with doxycycline before selection with Puromycin ([…]) on day 3, then were plated onto poly-ornithine, fibronectin, and laminin-coated coverslips on day 5. Cells were subsequently maintained in NeurobasalA (Gibco) media containing B-27 plus supplement and GlutaMAX supplemented with valproic acid (1 mM), dibutyryl cAMP ([…]), BDNF (10 ng/ml), NT-3 (10 ng/ml), and RA ([…]) until day 13. […]
Reprogramming cells were fixed with 4% paraformaldehyde (Electron Microscopy Sciences, #15710) for 20 min at room temperature (RT), and then permeabilized with 0.2% Triton X-100 for 10 min at RT. […] Images were captured using a Leica SP5X white light laser confocal system with Leica Application Suite (LAS) Advanced Fluorescence 2.7.3.9723.

[5] = tested on: HD-MSNs; test: Autophagy measurement in HD-MSNs (p62 immunoblot, CYTO-ID green); format: cell-based, human; conditions: 0.5 μM vs DMSO
Protocol: To test whether the differentially expressed genetic pathways between pre-HD-MSNs and HD-MSNs would be reflected at the cellular level, whether the autophagy activity would be different between pre-HD- and HD-MSNs was assessed. CYTO-ID assay, a fluorescence-based live-cell assay for accumulated autophagic vacuoles was performed as well as immunoblot for p62/SQSTM1 expression, a marker used to monitor autophagic activity due to its binding to LC3 and degradation by autophagy.
(§1) Adult dermal fibroblasts from symptomatic HD patients (Coriell NINDS and NIGMS Repositories: ND33947, ND30013, GM02173, GM04230, GM04198, GM02147), presymptomatic HD patients (GM04717, GM04861, GM04855, GM04831, GM04857, GM04829), and healthy controls (GM02171) were acquired from the Coriell Institute for Medical Research. The lentiviral cocktail of rtTA, pTight-9-124-BclxL, CTIP2, MYT1L, DLX1, and DLX2 was added to human fibroblasts for 16 h, then cells were washed and fed with fibroblasts media containing 1 μg/mL doxycycline (DOX). […]
Cells were lysed in a 2% SDS buffer. The concentrations of whole-cell lysates were measured using the Pierce BCA protein assay kit (Thermo Scientific, #23227). […]

[6] = tested on: HD-MSNs; test: Neuronal cell death assay in HD-MSNs (SYTOX, Caspase-3/7, Annexin V); format: cell-based, human
Protocol: as §1
0.1 μM SYTOX gene nucleic acid stain (Invitrogen, S7020) and 1 μl/mL of Hoeschst 33342 (Thermo Scientific, 66249) were added into cell medium. […] Images were taken using Leica DMI 4000B inverted microscope with Leica Application Suite (LAS) Advanced Fluorescence.
Cells were treated with 1× Essen Bioscience IncuCyte® Caspase-3/7 Green Reagent (final concentration 5 µM) and 1× Essen Bioscience IncuCyte® Annexin V Green or Red Reagent on day 22 or 26. […] Images were analyzed for the number of green or red objects per well. For the apoptotic index, the number of green or red objects (i.n., fluorescence cells) divided by phase area (μm2) per well was quantified by the IncuCyte® S3 Live-Cell Analysis System.

[7] = tested on: α1-antitrypsin Z variant (ATZ); test: Steady state levels of ATZ in HTO/Z cell line (immunoblot); activity of G2 analogs; format: cell-based, human; conditions: 24 hr treatment, 0.5 and 2.5 μM, FIG. 22C
[8] = tested on: C. elegans model of ATD (sGFP::ATZ); test: Quantification of ATZ accumulation in C. elegans model of ATD (Z worm); format: in vivo; conditions: GB administered to ATD C. elegans model
Protocol: The C. elegans strain VK1882 (vkls1882 [nhx-2p::sGFP::ATZ; myo-2p::mCherry) was routinely cultured at 20° C. on nematode growth medium plates seeded with E. coli strain OP50. Quantitative analysis of ATZ accumulation was carried out by detection of fluorescence using the Thermofisher CellInsight CX-7 high content imager as previously described. L4 stage animals were placed into wells of 384-well plates (30 per well) containing G2 analogs or an equivalent volume of DMSO. Following incubation at 20° C. for 24 hours, sodium azide was added to a final concentration of […] to anesthetize the animals and then each well was imaged on the CX-7 high content imager for quantification.

[9] = tested on: misfolded ATZ; test: Autophagic degradation of ATZ in mammalian cell line model of ATD; format: cell-based; conditions: effect blocked when autophagy gene ATG14 was deleted
[10] = PiZ mouse, marker of autophagic activity

SMILES	Activity [1]	hepatic ATZ load ([2]; PiZ mouse)	insulin secretion ([2]; PiZ mouse)	LC3-II conversion in the liver [2, 10]	p62 levels in the liver [2, 10]	hepatic / liver fibrosis (Sirius Red staining) ([2]; PiZ mouse, G2-19: 3 weeks of treatment vs placebo)	liver damage ([2]; mouse model of ATD)	autophagic degradation of misfolded ATZ [3]	IC50 ([1]; TABLE 1, assay not given)	mHTT aggregation [4]	p62/SQSTM1 protein levels (immunoblot) ([5]; PID26, FIG. 18F)	CYTO-ID signal (autophagic vacuoles) ([5]; PID 26, FIG. 18G)	MSN death by Caspase 3/7 activation and Annexin V signals ([6]; HD.40-MSNs three concentrations PID 30 (FIG. 18I), three patients 0.5 μM (FIG. 18J))	MSN death measured by SYTOX ([6]; HD.44-MSNs, 0.125, 0.25, or 0.5 µM, PID 35, FIG. 18H)	steady-state levels of ATZ [7]	accumulation of misfolded, aggregated ATZ [8]	autophagic degradation of misfolded ATZ [9]
COc1ccc(Cl)cc1C(N)=O [G2, 5-chloro-2-methoxybenzamide]	Active	significant reduction of hepatic ATZ load	without affecting insulin secretion	increased LC3-II conversion	decreased p62 levels	significant reduction	reverse liver damage	promoted autophagic degradation	–	–	–	–	–	–	–	–	–
O=c1ccc2c(Cl)cc(Cl)cc2[nH]1 [G2-115, 5,7-dichloroquinolin-2(1H)-one]	Active	–	–	–	–	–	–	–	100 to 1000 nM	significantly lower levels of mHTT aggregation	decrease in p62/SQSTM1 protein levels	increase in CYTO-ID signal	significant reduction in MSN death in a dose-dependent manner	significant reduction in MSN death in a dose-dependent manner	decreased the steady-state levels of ATZ	–	–
COc1ccc(Cl)cc1C(=O)NCCc1ccc(S(=O)(=O)NC(=O)NC2CCCCC2)cc1 [GB, 5-chloro-N-(4-(N-(cyclohexylcarbamoyl)sulfamoyl)phenethyl)-2-methoxybenzamide, reference compound]	–	–	–	–	–	–	–	–	–	–	–	–	–	–	–	reduced accumulation of misfolded, aggregated ATZ	enhances the autophagic degradation of misfolded ATZ

Source: patent publication US12496297B1, “Compositions of autophagy modulating agents and uses thereof” (Washington University, priority 2020, dated 2025)
